# Laboratory results taken from patent publication US9193990B2, “Bioluminescent metal ion assay” (priority 2013, dated 2015).
# Assays:
# [1] = system: firefly luciferase-holoCA fusion protein
# Description: The free zinc concentration can be related to the amount of orange emission, or preferably to the levels of luciferase emission and ultimate acceptor emission, or their ratio, which is proportional to zinc concentration.
# apoNanoLuc-CA = assay: bioluminescence emission of NanoLuc-CA with fluorescent sulfonamide and competing sulfonamide (FIG. 4); type: binding, human; conditions: 19 nM free Zn, after addition of competing nonfluorescent sulfonamide
# Description: In another preferred embodiment the luciferase gene fused to the human carbonic anhydrase II gene is from a variant of the luciferase isolated from the deep sea shrimp Oplophorus gracilirostris (offered commercially by Promega as Nanoluc), and the luciferin is a coelenterazine derivative called furimazine (“Engineered Luciferase Reporter from a Deep Sea Shrimp Utilizing a Novel Imidazopyrazinone Substrate” by Mary P. Hall †, James Unch ‡, Brock F. Binkowski †, Michael P. Valley †, Braeden L. Butler †, Monika G. Wood †, Paul Otto †, Kristopher Zimmerman †, Gediminas Vidugiris †, Thomas Machleidt †, Matthew B. Robers †, Hélène A. Benink †, Christopher T. Eggers †, Michael R. Slater †, Poncho L. Meisenheimer ‡, Dieter H. Klaubert ‡, Frank Fan †, Lance P. Encell *†, and Keith V. Wood † ACS Chem. Biol., 2012, 7 (11), pp 1848-1857DOI: 10.1021/cb3002478). […] An important advantage of this ratiometric approach is that it is essentially independent of time-dependent changes in bioluminescence emission, which are frequently observed. […]
# [2] = target: wild type human carbonic anhydrase II (Homo sapiens, UniProt P00918); conditions: free zinc ion, read-out: KD for binding to carbonic anhydrase; cited from earlier work
compound,measurement,setting,value
CC(=O)Nc1nnc(S(N)(=O)=O)s1 [acetazolamide],displacement of LISSAMINE rhodamine sulfonamide from holoCA sulfonamide binding site,[1],completely displaced
fluorescein thioureidyl ethyl phenyl sulfonamide [fluorescein sulfonamide],specificity of sulfonamide binding,apoNanoLuc-CA,specific
zinc ion,Kd,[2],~4 pM
